Measurements taken from US11497819B2, “PSMA ligands for imaging and endoradiotherapy” (priority 2017, dated 2022).
Like-named read-outs stand apart in the source and are kept apart here. One block for each molecule: values may come before it. *1 amine or outer side, *2 acyl side, *3 side chain or, on linkers, in order; H or OH if unused. Where a SMILES comes first, the peptide text is derived from it. Side-chain parts run from the residue outwards. [ ]: non-standard residue; d: D form. The star is where a group is joined. ξ: configuration not given here. ξOrn(Nα-γGlu(Nα-CO-Glu)) = O=C(O)CC[C@H](NC(=O)N[C@@H](CCC(=O)NC(CCCN*)C(=O)O)C(=O)O)C(=O)O; DOTAGA = O=C(O)CN1CCN(CC(=O)O)CCN(C(CCC(=O)*)C(=O)O)CCN(CC(=O)O)CC1; Phe(4-NO2) = N[C@@H](Cc1ccc([N+](=O)[O-])cc1)C(=O)O; X1 = O=C(c1ccc([N+](=O)[O-])cc1[N+](=O)[O-])*; d2Nal = N[C@H](Cc1ccc2ccccc2c1)C(=O)O; Suc = O=C(CCC(=O)[*:2])[*:1]; Dap = NC[C@H](N)C(=O)O

Experiments:
[1] = test system: LNCaP cells; assay: Internalization into LNCaP cells, relative cellular uptake to ([^125I]I-BA)KuE; type: cell-based; conditions: c = 1.0 nM ^177Lu-labeled inhibitor, 37° C., 60 min, corrected for non-specific binding (10 μM 2-PMPA), mean ± SD (n = 3)
Procedure: PSMA-positive LNCAP cells (300265; Cell Lines Service GmbH) were cultivated in Dulbecco modified Eagle medium/Nutrition Mixture F-12 (1/1) (DMEM-F12, Biochrom) supplemented with fetal calf serum (FCS) (10%, Biochrom) and kept at 37° C. in a humidified CO2 atmosphere (5%). One day (24 h±2 h) prior to all experiments with LNCaP cells, the cultivated cells were harvested using a mixture of trypsin/ethylendiaminetetraacetate (0.05%/0.02%) and PBS and centrifuged. After centrifugation, the supernatant was disposed and the cell pellet resuspended in culture medium. Afterwards, cells were counted with a hemocytometer (Neubauer) and seeded in 24-well plates.
Subsequent to the removal of the culture medium, the cells were washed once with DMEM-F12-solution (500 μL, 5% BSA) and left to equilibrate for at least 15 min at 37° C. in DMEM-F12-solution (200 μL, 5% BSA). Afterwards, each well was treated with either DMEM-F12-solution (25 μL, 5% BSA) or 2-PMPA-solution (25 μL, 100 μm) for blockade. […] The experiment was terminated by placing the 24-well plate on ice for 3 min and the consecutive removal of the medium. Each well was rinsed with HBSS (250 μL) and the fractions from these first two steps combined, representing the amount of free radioligand. Removal of surface bound activity was accomplished by incubation of the cells with ice-cold 2-PMPA-solution (250 μL, 10 μm in PBS) for 5 min and subsequent rinsing with ice-cold PBS (250 μL). The internalized activity was determined through incubation of the cells in NaOH (250 μL, 1.0 m) and the combination with the fraction of the subsequent washing step with again NaOH (250 μL, 1.0 m). Each experiment (control and blockade) was performed in triplicate for each time point. Free, surface bound and internalized activity was quantified in a γ-counter.

[2] = target: T1, HSA (Homo sapiens, UniProt P02768); assay: HSA binding on Chiralpak HSA column; type: in vitro ADME
T1 construct: purchased Daicel Chemical Industries / Chiral Technologies Europe (Illkirch, France)
Procedure: HSA binding experiments were performed as previously described. […] For each run, 10 μL of the solution containing the inhibitor was injected into the RP-HPLC system and the retention time measured. […] Non-linear regression was established with OriginPro 2016G.

[3] = Lipophilicity, logP in n-octanol/PBS of radiolabeled PSMA inhibitors; type: physicochemical; conditions: pH 7.4
Procedure: The radiolabeled PSMA inhibitor (0.5 to 1.0 MBq) dissolved in PBS (500 μL, pH=7.4), was added to n-octanol (500 μL) in a reaction vial (1.5 mL), which was rigorously vortexed for 3 min (n=6). For quantitative phase separation, the mixture was centrifuged at 6,000 g for 5 min (Biofuge 15, Heraus Sepatech, Osterode, Germany). The activity from samples of each phase (100 μL) were measured in a γ-counter to obtain the log P(o/w) value.

[4] = test system: LNCaP-tumor xenograft; assay: Biodistribution in LNCaP-tumor xenograft bearing CB-17 SCID mice; type: in vivo; conditions: male, CB-17 SCID, mouse, in vivo, 1 h
Procedure: All animal experiments were carried out in accordance with the general animal welfare regulations in Germany (Deutsches Tierschutzgesetz, approval #55.2-1-54-2532-71-13). For the tumor model, LNCaP cells (approx. 10^7 cells) were suspended in serum-free DMEM-F12 medium and Matrigel (1/1; v/v) (BD Biosciences, Germany) and inoculated onto the right shoulder of male, 6 to 8 weeks old CB-17 SCID mice (Charles River Laboratories, Sulzfeld, Germany). Animals were used after the tumor size reached 4 to 8 mm in diameter for experiments.

T1 sequence (P02768 25-609): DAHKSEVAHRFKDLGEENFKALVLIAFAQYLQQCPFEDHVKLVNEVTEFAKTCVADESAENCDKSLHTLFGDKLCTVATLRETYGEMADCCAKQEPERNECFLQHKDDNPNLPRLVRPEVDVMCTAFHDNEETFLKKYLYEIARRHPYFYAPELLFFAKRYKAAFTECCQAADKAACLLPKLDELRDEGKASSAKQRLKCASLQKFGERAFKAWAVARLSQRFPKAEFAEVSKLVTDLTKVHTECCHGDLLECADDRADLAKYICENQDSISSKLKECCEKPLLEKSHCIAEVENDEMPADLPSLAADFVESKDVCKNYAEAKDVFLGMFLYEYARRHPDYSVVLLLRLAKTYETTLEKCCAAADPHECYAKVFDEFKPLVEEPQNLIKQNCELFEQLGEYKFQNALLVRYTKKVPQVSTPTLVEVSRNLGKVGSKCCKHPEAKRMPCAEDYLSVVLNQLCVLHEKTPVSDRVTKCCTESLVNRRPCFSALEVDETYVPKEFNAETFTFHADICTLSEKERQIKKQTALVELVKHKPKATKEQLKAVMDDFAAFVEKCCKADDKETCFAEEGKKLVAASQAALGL

SMILES: Nc1ccc(C[C@H](NC(=O)CCC(C(=O)O)N2CCN(CC(=O)O)CCN(CC(=O)O)CCN(CC(=O)O)CC2)C(=O)N[C@H](Cc2ccc(O)cc2)C(=O)N[C@H](Cc2ccc3ccccc3c2)C(=O)N[C@H](CCCCNC(=O)[C@@H](CC(=O)NCCCC(NC(=O)CC[C@H](NC(=O)N[C@@H](CCC(=O)O)C(=O)O)C(=O)O)C(=O)O)NC(=O)c2cc(O)cc(O)c2)C(=O)O)cc1 (stereo partly shown) [PSMA-78, DOTAGA-F(4-NH2)y-2-nal-k(d[N^5-orn-C^4-EuE]-3,5-DHBA)]
- Internalization [1]: 289.0 ± 6.2%

- HSA (albumin binding) ([2]; human, 0.5 mg/mL): 95.4%
- logP [3]: -4.11 ± 0.07
SMILES: O=C(O)CC[C@H](NC(=O)N[C@@H](CCC(=O)NC(CCCNC(=O)CCC(=O)NCCCC[C@@H](NC(=O)[C@@H](Cc1ccc2ccccc2c1)NC(=O)[C@@H](Cc1ccc(O)cc1)NC(=O)[C@H](Cc1ccc([N+](=O)[O-])cc1)NC(=O)CCC(C(=O)O)N1CCN(CC(=O)O)CCN(CC(=O)O)CCN(CC(=O)O)CC1)C(=O)O)C(=O)O)C(=O)O)C(=O)O (stereo partly shown) [PSMA-52, DOTAGA-F(4-NO2)-y-2-nal-k(Suc-N^5-orn-C^4-EuE)] ({DOTAGA}-[Phe(4-NO2)][dY][d2Nal][dK]([Suc-ξOrn(Nα-γGlu(Nα-CO-Glu))])-OH)
- Internalization [1]: 229.9 ± 8.0%

SMILES: O=C(O)CC[C@H](NC(=O)N[C@@H](CCC(=O)NC(CCCNC(=O)CCC(=O)NCCCC[C@@H](NC(=O)[C@@H](Cc1ccc2ccccc2c1)NC(=O)[C@@H](Cc1ccc(O)cc1)NC(=O)[C@H](CNC(=O)CCC(C(=O)O)N1CCN(CC(=O)O)CCN(CC(=O)O)CCN(CC(=O)O)CC1)NC(=O)c1ccc([N+](=O)[O-])cc1[N+](=O)[O-])C(=O)O)C(=O)O)C(=O)O)C(=O)O (stereo partly shown) [PSMA-53, 2,4-DNBA-Dap(DOTAGA)-y-2-nal-k(Suc-N^5-orn-C^4-EuE)] (X1-[Dap](DOTAGA)[dY][d2Nal][dK]([Suc-ξOrn(Nα-γGlu(Nα-CO-Glu))])-OH)
- Internalization [1]: 293.6 ± 10.0%
- HSA (albumin binding) ([2]; after logarithmic plotting and calibration (n = 1)): 95.9%
- logP ([3]; distribution coefficient in n-octanol/PBS, radiolabeled inhibitor, mean ± SD (n = 6), read-out: logP): -4.08 ± 0.04

- logP [3]: -4.01 ± 0.11
- adrenal gland [4]: 5.66 ± 1.66 % ID/g
- blood [4]: 0.46 ± 0.06 % ID/g
- bone [4]: 0.29 ± 0.14 % ID/g
- brain [4]: 0.03 ± 0.01 % ID/g
- heart [4]: 0.57 ± 0.11 % ID/g
- intestine [4]: 0.30 ± 0.08 % ID/g
- liver [4]: 0.99 ± 0.19 % ID/g
- lung [4]: 1.47 ± 0.25 % ID/g
- muscle [4]: 0.17 ± 0.02 % ID/g
- pancreas [4]: 0.56 ± 0.07 % ID/g
- spleen [4]: 20.53 ± 6.79 % ID/g
- stomach [4]: 0.35 ± 0.10 % ID/g
- tumor [4]: 8.21 ± 0.23 % ID/g
- tumor/blood [4]: 17.8
- tumor/kidney [4]: 0.05
- tumor/muscle [4]: 48.3
SMILES: Nc1ccc(C[C@@H](NC(=O)CCC(C(=O)O)N2CCN(CC(=O)O)CCN(CC(=O)O)CCN(CC(=O)O)CC2)C(=O)N[C@H](Cc2ccc(O)cc2)C(=O)N[C@H](Cc2ccc3ccccc3c2)C(=O)N[C@H](CCCCNC(=O)CCC(=O)NCCCC(NC(=O)CC[C@H](NC(=O)N[C@@H](CCC(=O)O)C(=O)O)C(=O)O)C(=O)O)C(=O)O)cc1 (stereo in doubt) [PSMA-49, DOTAGA-F(4-NH2)y-2-nal-k(Suc-N^5-orn-C^4-EuE)]
- Internalization [1]: 245.0 ± 4.2%
